Measured values taken from patent US20060009478A1, “Methods for the treatment of back pain” (priority 2003, published 2006).
“And” between values parts separate entries of the source, which are not always exact repeats. Identical values can stand only once.

Tests used:
IL10 = assay: Plasma cytokine concentration, Pointilliste Human Th1/Th2 Cytokine Canvas; assay type: in vivo; conditions: OXY = oxycodone QID, BID/QID = combination drug of oxycodone and naltrexone BID/QID
Experimental: (§1) Plasma samples from selected subjects in the clinical study were used to assay for the presence and concentration of selected cytokines.
(§2) Plasma samples were analyzed using a commercial cytokine assay from Pointilliste (www.pointilliste.com) to quantify the concentrations of IL2, IL4, IL5, IL6, IL10, IL13, GM-CSF, interferon and TNFα. Plasma samples were separately analyzed for IL1αand IL1β, which were quantitated using a conventional cytokine assay by Pointilliste. The cytokine assay for the quantitation of IL2, IL4, IL5, IL6, IL10, IL13, GM-CSF, interferon and TNFα employed, Pointilliste's Human Th1/Th2 Cytokine Canvas product which contains binding sites for each of these nine cytokines.
(§3) Two measurements (duplicates) for each cytokine were possible for each plasma sample applied to a canvas, since the canvas has two binding sites for each cytokine.
(§4) Fifty-seven frozen human plasma samples containing EDTA as an anticoagulant were thawed on ice and transferred to a sterile 96-deep well polypropylene plate. The plate was centrifuged briefly at 4° C. to clarify the plasma. Aliquots of clarified plasma were removed for cytokine analysis, and the remaining samples in the 96-deep well polypropylene plate were stored at −80° C.
(§5) The aliquots of clarified plasma were transferred to sterile non-protein binding 96-well polypropylene plates to enable parallel processing of the samples. Two different 96 well plates were used, and each received a subsample of the aliquots at different dilutions. Two dilutions (1 in 1 and 1 in 10) of each sample were assayed on two separate human Th1/Th2 cytokine canvases. In order to quantify the cytokine concentrations, standard curves were generated for each dilution. A mixture of 9 cytokines was run on each of the canvases and used to calculate a standard curve, which was used to determine the amount of each cytokine in the samples. The standard curves were plotted with the signal intensity as a function of the cytokine concentration in ng/ml. A CCD camera was used with Pointilliste's Canvas Analysis Tools software to generate data corresponding to cytokine concentrations.

IL13 = assay: as above; assay type: in vivo; conditions: OXY = oxycodone QID, BID/QID = combination drug of oxycodone and naltrexone BID/QID
Experimental: as §1, §2, §3, §4, §5

IL2 = assay: as above; assay type: in vivo; conditions: OXY = oxycodone QID, BID/QID = combination drug of oxycodone and naltrexone BID/QID
Experimental: as §1, §2, §3, §4, §5

IL4 = assay: as above; assay type: in vivo; conditions: OXY = oxycodone QID, BID/QID = combination drug of oxycodone and naltrexone BID/QID
Experimental: as §1, §2, §3, §4, §5

IL6 = assay: as above; assay type: in vivo; conditions: OXY = oxycodone QID, BID/QID = combination drug of oxycodone and naltrexone BID/QID
Experimental: as §1, §2, §3, §4, §5

TNFα = assay: as above; assay type: in vivo; conditions: OXY = oxycodone QID, BID/QID = combination drug of oxycodone and naltrexone BID/QID
Experimental: as §1, §2, §3, §4, §5

interferon gamma = assay: as above; assay type: in vivo; conditions: OXY = oxycodone QID, BID/QID = combination drug of oxycodone and naltrexone BID/QID
Experimental: as §1, §2, §3, §4, §5

[1] = tested on: patients with moderate to severe chronic low back pain; assay: Global assessment of study medication, low back pain study; assay type: in vivo, human; conditions: LOCF, ITT
Experimental: Global assessment of study medication was also assessed at clinic visits during the titration and fixed-dose periods. The patient was prompted with the question, “How would you rate the study medication you received during the past week/past two weeks? (Please consider the quality of your pain relief, your side effects, your activity level, your mood and sense of well-being, etc. in this evaluation.)” Responses were selected from poor, fair, good, very good, and excellent.
Global assessment and quality of analgesia ratings were summarized descriptively by treatment group for both the titration and fixed-dose periods. Treatments were compared at each visit in the fixed-dose period, globally and in pairwise fashion, using the Cochran-Mantel-Haenszel row mean scores (CMH-RMS) test, using equally spaced scores.

[2] = tested on: patients with moderate to severe chronic low back pain; assay: Dose analysis (average titration dose, fixed dose, study drug dose of opioid agonist), low back pain study
Source text: Dose and adverse events were to be evaluated at each visit. The dose was to be increased to the next dose level if the average daily bedtime PI during the last 3 days of each preceding week was >2 and no unacceptable adverse events were reported. The dose was to be fixed, if the average daily bedtime PI during the last 3 days of each preceding week was ≦2 with no unacceptable adverse events, and the patient was to enter the 12-week fixed-dose period of the study. For these patients, the last week of the titration period was to serve as the first week of the fixed dose period. Therefore, only an additional 11 weeks of treatment were carried out. The same procedure was to occur if a patient had reached 80 mg at Week 6 of the titration period with no unacceptable adverse events.
During the titration period (Weeks 2-6, Day 1), patients returned to the study center at weekly intervals (±1 day) for up to six weeks for the following assessments: (1) opioid toxicity assessment; (2) review take-home diary (including overall daily bedtime PI and opioid-related adverse events); (3) record new/changed adverse events and concomitant medications; (4) collect study medication from previous week and account for used/unused supplies; (5) vital signs; (6) quality of analgesia; (7) global assessment of study medication; (8) dispense take-home daily diary; and (8) dispense study medication (one blister card). Dose and adverse events were evaluated at each visit. The dose was to be increased to the next dose level if the average daily bedtime PI during the last 3 days of each preceding week was >2 and no unacceptable adverse events were reported. The dose was to be fixed, if the average daily bedtime PI during the last 3 days of each preceding week was ≦2 with no unacceptable adverse events, and the patient entered the fixed-dose period of the study. For these patients, the last week of the titration period served as the first week of the fixed dose period. Therefore, only an additional 11 weeks of treatment were required. The same procedure occurred if a patient had reached 80 mg at Week 6 of the titration period with no unacceptable adverse events. If any unacceptable study drug related adverse events were encountered, the dose was to be reduced by one level. No more than one dose reduction can occur. The patient was to remain at this reduced dose for a total of 12 weeks. For patients experiencing unacceptable adverse events or intolerable pain in between scheduled clinic visits, the dose level was to be decreased or increased during the treatment week with the Sponsor's approval.

[3] = individual measurements of plasma samples, listed as OXY
[4] = treatment group mean, random sample of subjects
[5] = mg of opioid agonist, ITT population

COc1ccc2c3c1O[C@H]1C(=O)CC[C@@]4(O)[C@@H](C2)N(C)CC[C@]314 [OXY QID, oxycodone]
IL10 cytokine concentration (IL10; [3]): 0.07237 ng/mL and 0.2164 ng/mL and 0.2235 ng/mL and 0.2438 ng/mL and 0.2959 ng/mL and 0.3757 ng/mL and 0.9598 ng/mL and 1.236 ng/mL and 1.26 ng/mL and 1.394 ng/mL
Mean of IL10 concentrations (IL10; [4]): 0.628 ng/mL
IL13 cytokine concentration (IL13; [3]): 2.362 ng/mL and 3.291 ng/mL and 3.392 ng/mL and 0.06466 ng/mL and 0.073 ng/mL and 0.1092 ng/mL and 0.1415 ng/mL and 0.1418 ng/mL and 0.1451 ng/mL and 0.1509 ng/mL and 0.169 ng/mL and 0.2847 ng/mL and 0.3385 ng/mL and 0.37 ng/mL and 0.6256 ng/mL and 0.941 ng/mL and 1.09 ng/mL and 2.079 ng/mL
Mean of IL13 concentrations (IL13; [4]): 0.876 ng/mL
IL2 cytokine concentration (IL2; [3]): 0.1202 ng/mL and 0.1501 ng/mL and 0.1613 ng/mL and 0.1672 ng/mL and 0.208 ng/mL and 0.2689 ng/mL and 0.3259 ng/mL and 0.4012 ng/mL and 0.4755 ng/mL and 0.5532 ng/mL and 0.7233 ng/mL and 1.583 ng/mL and 1.817 ng/mL and 0.092 ng/mL
Mean of IL2 concentrations (IL2; [4]): 0.503 ng/mL
IL4 cytokine concentration (IL4; [3]): 0.0907 ng/mL and 0.09132 ng/mL and 0.1379 ng/mL and 0.1411 ng/mL and 0.2369 ng/mL and 0.2651 ng/mL and 0.4655 ng/mL and 0.4725 ng/mL
Mean of IL4 concentrations (IL4; [4]): 0.238 ng/mL
IL6 cytokine concentration (IL6; [3]): 0.04453 ng/mL and 0.0579 ng/mL and 0.06949 ng/mL and 0.0733 ng/mL and 0.07724 ng/mL and 0.0774 ng/mL and 0.1107 ng/mL and 0.1115 ng/mL and 0.1391 ng/mL and 0.1469 ng/mL and 0.3354 ng/mL and 0.3599 ng/mL and 0.5957 ng/mL and 0.604 ng/mL
Mean of IL6 concentrations (IL6; [4]): 0.2 ng/mL
TNF cytokine concentration (TNFα; [3]): 0.05312 ng/mL and 0.05316 ng/mL and 0.05332 ng/mL and 0.06095 ng/mL and 0.1469 ng/mL and 0.2 ng/mL and 0.5152 ng/mL and 0.5153 ng/mL
Mean of TNF concentrations (TNFα; [4]): 0.2 ng/mL
IFN cytokine concentration (interferon gamma; [3]): 0.07226 ng/mL and 0.07442 ng/mL and 0.2197 ng/mL and 0.2407 ng/mL
Mean of IFN concentrations (interferon gamma; [4]): 0.152 ng/mL
Global assessment EXCELLENT (4), number of patients ([1]; fixed dose period week 1): 14
Global assessment EXCELLENT (4), percent of patients ([1]; fixed dose period week 1): 6.8%
Global assessment FAIR (1), number of patients ([1]; fixed dose period week 1): 23
Global assessment FAIR (1), percent of patients ([1]; fixed dose period week 1): 11.2%
Global assessment GOOD (2), number of patients ([1]; fixed dose period week 1): 72
Global assessment POOR (0), number of patients ([1]; fixed dose period week 1): 33
Global assessment POOR (0), percent of patients ([1]; fixed dose period week 1): 16.0%
Global assessment VERY GOOD (3), number of patients ([1]; fixed dose period week 1): 63
Global assessment VERY GOOD (3), percent of patients ([1]; fixed dose period week 1): 30.6%
Global assessment EXCELLENT (4), number of patients ([1]; fixed dose period week 2): 21
Global assessment EXCELLENT (4), percent of patients ([1]; fixed dose period week 2): 10.2%
Global assessment FAIR (1), number of patients ([1]; fixed dose period week 2): 22
Global assessment FAIR (1), percent of patients ([1]; fixed dose period week 2): 10.7%
Global assessment GOOD (2), number of patients ([1]; fixed dose period week 2): 79
Global assessment POOR (0), number of patients ([1]; fixed dose period week 2): 33
Global assessment POOR (0), percent of patients ([1]; fixed dose period week 2): 16.0%
Global assessment VERY GOOD (3), number of patients ([1]; fixed dose period week 2): 50
Global assessment EXCELLENT (4), number of patients ([1]; fixed dose period week 4): 20
Global assessment EXCELLENT (4), percent of patients ([1]; fixed dose period week 4): 9.7%
Global assessment FAIR (1), number of patients ([1]; fixed dose period week 4): 26
Global assessment FAIR (1), percent of patients ([1]; fixed dose period week 4): 12.6%
Global assessment GOOD (2), number of patients ([1]; fixed dose period week 4): 69
Global assessment POOR (0), number of patients ([1]; fixed dose period week 4): 37
Global assessment POOR (0), percent of patients ([1]; fixed dose period week 4): 18.0%
Global assessment VERY GOOD (3), number of patients ([1]; fixed dose period week 4): 53
Global assessment EXCELLENT (4), number of patients ([1]; fixed dose period week 6): 23
Global assessment EXCELLENT (4), percent of patients ([1]; fixed dose period week 6): 11.2%
Global assessment FAIR (1), number of patients ([1]; fixed dose period week 6): 28
Global assessment FAIR (1), percent of patients ([1]; fixed dose period week 6): 13.6%
Global assessment GOOD (2), number of patients ([1]; fixed dose period week 6): 73
Global assessment POOR (0), number of patients ([1]; fixed dose period week 6): 38
Global assessment POOR (0), percent of patients ([1]; fixed dose period week 6): 18.4%
Global assessment VERY GOOD (3), number of patients ([1]; fixed dose period week 6): 43
Global assessment VERY GOOD (3), percent of patients ([1]; fixed dose period week 6): 20.9%
Global assessment EXCELLENT (4), number of patients ([1]; fixed dose period week 8): 20
Global assessment EXCELLENT (4), percent of patients ([1]; fixed dose period week 8): 9.7%
Global assessment FAIR (1), number of patients ([1]; fixed dose period week 8): 34
Global assessment FAIR (1), percent of patients ([1]; fixed dose period week 8): 16.5%
Global assessment GOOD (2), number of patients ([1]; fixed dose period week 8): 74
Global assessment POOR (0), number of patients ([1]; fixed dose period week 8): 36
Global assessment POOR (0), percent of patients ([1]; fixed dose period week 8): 17.5%
Global assessment VERY GOOD (3), number of patients ([1]; fixed dose period week 8): 41
Global assessment VERY GOOD (3), percent of patients ([1]; fixed dose period week 8): 19.9%
Global assessment EXCELLENT (4), number of patients ([1]; fixed dose period week 10): 23
Global assessment EXCELLENT (4), percent of patients ([1]; fixed dose period week 10): 11.2%
Global assessment FAIR (1), number of patients ([1]; fixed dose period week 10): 34
Global assessment FAIR (1), percent of patients ([1]; fixed dose period week 10): 16.5%
Global assessment GOOD (2), number of patients ([1]; fixed dose period week 10): 65
Global assessment GOOD (2), percent of patients ([1]; fixed dose period week 10): 31.6%
Global assessment POOR (0), number of patients ([1]; fixed dose period week 10): 38
Global assessment POOR (0), percent of patients ([1]; fixed dose period week 10): 18.4%
Global assessment VERY GOOD (3), number of patients ([1]; fixed dose period week 10): 45
Global assessment VERY GOOD (3), percent of patients ([1]; fixed dose period week 10): 21.8%
Global assessment EXCELLENT (4), number of patients ([1]; fixed dose period week 12): 22
Global assessment EXCELLENT (4), percent of patients ([1]; fixed dose period week 12): 10.7%
Global assessment FAIR (1), number of patients ([1]; fixed dose period week 12): 33
Global assessment FAIR (1), percent of patients ([1]; fixed dose period week 12): 16.0%
Global assessment GOOD (2), number of patients ([1]; fixed dose period week 12): 75
Global assessment POOR (0), number of patients ([1]; fixed dose period week 12): 38
Global assessment POOR (0), percent of patients ([1]; fixed dose period week 12): 18.4%
Global assessment VERY GOOD (3), number of patients ([1]; fixed dose period week 12): 37
Global assessment VERY GOOD (3), percent of patients ([1]; fixed dose period week 12): 18.0%
Mean study drug dose of oxycodone ([2]; entire study period (titration and fixed-dose), ITT): 39.0 mg
Mean fixed dose of oxycodone ([2]; fixed-dose period, ITT): 57.2 mg
AVERAGE FIXED DOSE, MAXIMUM [2, 5]: 80.0 mg
AVERAGE FIXED DOSE, MEAN (SD) [2, 5]: 57.2 (23.35) MG
AVERAGE FIXED DOSE, MEDIAN [2, 5]: 60.0 mg
AVERAGE FIXED DOSE, MINIMUM [2, 5]: 10.0 mg
AVERAGE STUDY DRUG DOSE, MAXIMUM [2, 5]: 67.8 mg
AVERAGE STUDY DRUG DOSE, MEAN (SD) [2, 5]: 39.0 (19.87) MG
AVERAGE STUDY DRUG DOSE, MEDIAN [2, 5]: 35.6 mg
AVERAGE STUDY DRUG DOSE, MINIMUM [2, 5]: 10.0 mg
AVERAGE TITRATION DOSE, MAXIMUM [2, 5]: 42.3 mg
AVERAGE TITRATION DOSE, MEAN (SD) [2, 5]: 24.2 (8.22) MG
AVERAGE TITRATION DOSE, MEDIAN [2, 5]: 25.9 mg
AVERAGE TITRATION DOSE, MINIMUM [2, 5]: 0.0 mg
Opioid drug dose required to achieve comparable pain relief ([2]; per day, p<0.05): approximately 39 mg
Mean titration dose of oxycodone ([2]; titration period, ITT): 24.2 mg
